In general, EC50 refers to the concentration needed to bring the measured effect to its halfway point.

Ends that are not written are not given here.

First the molecules themselves.
B1: Monalizumab: α-NKG2A blocking monoclonal antibody (Innate Pharma) (antibody, chains of the INN, looked up, V domains shown)
VH: QVQLVQSGAEVKKPGASVKVSCKASGYTFTSYWMNWVRQAPGQGLEWMGRIDPYDSETHYAQKLQGRVTMTTDTSTSTAYMELRSLRSDDTAVYYCARGGYDFDVGTLYWFFDVWGQGTTVTVSS
VL: DIQMTQSPSSLSASVGDRVTITCRASENIYSYLAWYQQKPGKAPKLLIYNAKTLAEGVPSRFSGSGSGTDFTLTISSLQPEDFATYYCQHHYGTPRTFGGGTKVEIK

The first test has as its system EBV-infected K562-CR2-HLA-E*0103/0103 cells. Put plainly: Cell proliferation assay, K562-CR2-HLA-E*0103/0103. The format is cell-based, human. To be noted: GGDPHLPTL-pulsed (300 µM) K562-CR2-HLA-E*0103/0103 with NKG2A+NKG2C- or NKG2A+NKG2C+ NK cells, Monalizumab 10 µg/mL; Figure 2H. How it is done:
(§1) For the cell proliferation assays MHC-I-deficient K562-CR2, K562-CR2-HLA-E*0103/0103 or K562-CR2-HLA-E*0101/0101 target cells were established and maintained as described before ([16]). The cells were then always infected with the marmoset B-lymphoblastoid cell line B95-8 derived EBV-strain, which encodes for the GGDPHLPTL LMP-1 variant, (MOI=1) ([16]) for 3 days. Sorted NKG2C^-NKG2A^+, NKG2C^+NKG2A^- and NKG2C^+NKG2A^+ NK cells were used as effector cells and were quickly thawed at 37°C, washed, and pre-activated overnight in RPMI, 10% FCS, 1% L-glutamine, 10 ng/ml IL-12 and 100 ng/ml IL-18 at 37°C. The NK cells were then harvested by centrifugation at 400xg for 5 minutes and washed once with Opti-MEM. […] All cells were then harvested, fixed with the FIX & PERM Cell Fixation & Cell Permeabilization Kit (Thermo-Scientific) and analysed by flow-cytometry, as described below. […]
(§2) Figure 2 HLA-E variants are associated with the development of EBV^+ lymphomas and inhibit NKG2A^+ NK cells. […] (E) Enriched NKG2A^+NKG2C^- NK cells were co-cultured with EBV-infected K562-CR2, K562-CR2-HLA-E*0103/0103 or K562-CR2-HLA-E*0101/0101 cells and were subsequently analyzed by flow-cytometry. […] Viable EBV-infected K562-CR2-HLA-E*0103/0103 or K562-CR2-HLA-E*0101/0101 cells or enriched NKG2A^+NKG2C^- NK cells was subsequently analysed by flow-cytometry. […]
B1: the “EBV-infected K562-CR2 cell dissemination on blocking of NKG2A” value is “reduction”.

Another test has as its system EBV-infected K562-CR2-HLA-E*0101/0101 cells. Put plainly: Cell proliferation assay, K562-CR2-HLA-E*0101/0101. The format is cell-based, human. To be noted: GGDPHLPTL-pulsed (300 µM) K562-CR2-HLA-E*0101/0101 with NKG2A+NKG2C- or NKG2A+NKG2C+ NK cells, Monalizumab 10 µg/mL; Figure 2H. How it is done: as §1, §2
For B1, the “EBV-infected K562-CR2 cell dissemination on blocking of NKG2A” value was “reduction”.

The target in the next test is T1, HLA-E on the surface of Raji cells (Homo sapiens, UniProt P13747).
T1 construct: host or cells: Raji cells
The experiment in a line: HLA-E stabilisation assay (flow-cytometry). Type of test: cell-based. As to conditions: HLA-E*0101/0101 Raji cells transfected with peptide, HLA-E surface expression after 16h by flow-cytometry; three independent replicates; Figure 1E; read-out: HLA-E upregulation (EC50). How it is done: For the HLA-E stabilization experiments, HLA-E*0101/0101-encoding Raji cells (German Collection of Microorganisms and Cell Cultures) were maintained in 90% RPMI 1640 + 10% heat-inactivated FCS (Thermo-Fisher). The cells were individually transfected with indicated concentrations of the LMP-1 peptides (Peptides&Elephants) using the Pierce Protein Transfection Reagent according to the manufacturer’s instructions (Thermo-Fisher). After 16h, the cells were either fixed and analyzed for the HLA-E expression by flow-cytometry as described below, or washed once with Opti-MEM I Reduced Serum Medium (Gibco) and subsequently used in NKG2A^+ NK cell inhibition experiments.
The following conjugated mouse anti-human mAB were used for flow-cytometry: PE-CD19 (4G7), BV421-CD56 (NCAM 16.2), BV510-NKG2A (131411), PE-CD71 (M-A712) (all: BD Biosciences), AF647-NKG2C (134591, R&D Systems), APC-HLA/E (3D12) (Biolegend). Dead cells were identified using 7-AAD, LIVE/DEAD Fixable Green or Near-IR Dead Cell Stain Kit (both: Thermo-Scientific). Flow-cytometry analysis was performed on a FACSCanto2 platform and FACSDiva Version 10.7.2 (BD).
Figure 1 LMP-1-derived peptides are associated with the development of EBV^+ lymphomas and inhibit NKG2A^+ NK cells. (A–D) Distribution of LMP-1 variants in patients with (A) asymptomatic reactivations (N=96), (B) symptomatic reactivations (N=96), (C) EBV^+HL (N=25), (D) EBV^+nHL (N=38). Fractions represent the relative frequency of the LMP-1 peptide GGDPHLPTL, GSDPHLPTL, GGDPHLPPL, GGDPPLPTL, GCDPHLPTL, GIDPHLPTL, GAGPHLPTL, GGDTPLPTL, GDDPHLPTL, GGDPHVPTL and GTDPHLPTL variants. ^+ The frequency of the LMP-1 variants was compared to the asymptomatic cohort by the Chi^2 Test. (E, F) HLA-E stabilisation assay. (E) HLA-E stabilisation assay: Raji cells were incubated with indicated concentrations of the positive control (VMAPRTLFL) or the LMP-1 peptide-derived GGDPHLPTL, GSDPHLPTL, GGDPHLPPL, GGDPPLPTL, GCDPHLPTL, GIDPHLPTL, GAGPHLPTL, GGDTPLPTL, GDDPHLPTL, GGDPHVPTL and GTDPHLPTL variants. The HLA-E surface expression was then assessed after 16h of co-culture by flow-cytometry. Plots represent the mean ( ± SD) of three independent replicates. Each peptide was compared to the positive control using RM one-way ANOVA (with the Geisser-Greenhouse correction). (F) NKG2A^+NKG2C^- NK cell inhibition assay: Raji cells were incubated with indicated concentrations of the positive control (VMAPRTLFL) or the LMP-1 peptide-derived GGDPHLPTL, GSDPHLPTL, GGDPHLPPL, GGDPPLPTL, GCDPHLPTL, GIDPHLPTL, GAGPHLPTL, GGDTPLPTL, GDDPHLPTL, GGDPHVPTL and GTDPHLPTL variants and were then co-cultured with pre-activated NKG2A^+NKG2C^- NK cells from 12 blood donors. Plots represent the mean ( ± SD) of 12 independent replicates. Each peptide was compared to the positive control using RM one-way ANOVA (with the Geisser-Greenhouse correction). p < 0.05 was considered significant. *p < 0.05; **p < 0.01; ***p < 0.001. EBV^+HL, EBV^+ Hodgkin lymphoma, EBV^+nHL, EBV^+ non-Hodgkin lymphoma, Pos. Ctrl., positive control. TEXT PRINTED IN THE PICTURE: (E) Pos. Ctrl.: 81.4 μM | (E) GTDPHLPTL: 167.7 μM | (E) GGDPHLPTL: 162 μM | (E) GGDPPLPTL: 153.8 μM | (E) GIDPHLPTL: 313.9 μM | (E) GCDPHLPTL: 304.8 μM | (E) GDDPHLPTL: 370.3 μM | (E) GAGPHLPTL: 317.1μM | (E) GGDPHVPTL: 759 μM | (E) GSDPHLPTL: 613.9 μM | (E) GGDPHLPPL: 682 μM | (E) GGDTPLPTL: 1110 μM | (F) Pos. […] The y-axis titles are 'HLA-E upregulation' (E) and 'NKG2A+NKG2C- NK cell inhibition' (F). / Panels A–D: the percentages and counts (e.g. 44.8%, 43/96) are frequencies of peptide variants in patient cohorts, not results for a substance, and are left out.
As for GGDPHLPTL [GGDPHLPTL], the EC50 worked out at 162 µM.
Turning to GGDPHLPPL [GGDPHLPPL], the EC50 turned out to be 682 µM.
As to GCDPHLPTL [GCDPHLPTL], the EC50 is 305 µM.
With GGDTPLPTL [GGDTPLPTL], the 50% effective concentration (EC50) worked out at 1110 µM.
GSDPHLPTL [GSDPHLPTL]: the concentration for a half-maximal effect (EC50) was 614 µM.
In the case of GAGPHLPTL [GAGPHLPTL], the half-maximal effective concentration (EC50) was 317 µM.
Regarding GTDPHLPTL [GTDPHLPTL], the EC50 was 168 µM.
As to GGDPPLPTL [GGDPPLPTL], the concentration for a half-maximal effect (EC50) was 154 µM.
On to GIDPHLPTL [GIDPHLPTL], for which the EC50 stood at 314 µM.
Regarding GGDPHVPTL [GGDPHVPTL], the EC50 turned out to be 759 µM.
Same read-out and setting: then GDDPHLPTL [GDDPHLPTL], with 370 µM.

For the origin of these results see article PMC10324562, “Inhibitory NKG2A^+ and absent activating NKG2C^+ NK cell responses are associated with the development of EBV^+ lymphomas” (Frontiers in Immunology, 2023).
